Laboratory results as given in patent publication US7291451B2, “Modulation of pericyte proliferation” (XOMA Technology Ltd., priority 2000, dated 2007).
“And” between values parts separate entries of the source, which are not always exact repeats. Equal values may be shown once. “Also recorded” adds a separate entry of the source.

Tests used:
[1] = test system: human retinal pericytes (HRPC); experiment: Human retinal pericyte proliferation assay (Methylene blue, OD650); assay type: cell-based; details: for HRPC proliferation: initial experiment, treated once, medium not changed; for toxicity on HRPC: initial assay
Method: In addition to studies with primary cell cultures of bovine retinal pericytes described above, experiments were performed with a human cell line obtained from Clonetics (San Diego, Calif.) of retinal pericytes (catalog no. CC-2542 PyCRt). These human retinal pericytes (HRPC) were cultured in Dulbecco's modified Eagle's medium (DMEM, Gibco BRL, Grand Island, N.Y.) with 5.6 mM glucose and 20% fetal bovine serum (FBS, Gibco BRL, Grand Island, N.Y.).
Proliferation assays were performed as follows: HRPC were plated onto 24-well culture plates (3000 cells/well) in 5 or 10% FBS-DMEM with 5.6 mM glucose and incubated overnight. The cells were treated once with vehicle alone or with vehicle and several concentrations of XMP.627 ([SEQ ID NO: 4]), XMP.664 ([SEQ ID NO: 5]), XMP.679 ([SEQ ID NO: 3]), or XMP.728 ([SEQ ID NO: 6]) for 5 or 6 days. The medium was not changed, nor were additional amounts of test compounds added as described in the experiments of part A above. The cells were fixed and stained with Methylene blue and proliferation assayed by observation at OD650.

[2] = test system: bovine retinal endothelial cells (BREC); experiment: Cell growth assay (DNA content) in bovine retinal endothelial cells; assay type: cell-based
Method: Primary cultures of bovine retinal endothelial cells (BREC) were isolated by homogenization and a series of filtration steps as described in King et al., J. Clin. Invest., 1985, 75:1028-36. BREC were subsequently cultured with endothelial cell basal medium (EBM; Clonetics, San Diego, Calif.). supplemented with 10% plasma-derived horse serum (PDHS), 50 mg/l heparin, and 50 μg/ml endothelial cell growth factor (ECGF, Roche, Indianapolis, Ind.). Cells were characterized for homogeneity by their immunoreactivity with anti-factor VIII antibody. Cells remained morphologically unchanged under these conditions, as confirmed by light microscopy. Only cells from passages 2 through 7 were used for the experiments.
(§1) A cell growth assay was performed as follows: Cells were plated onto 12-well culture plates and incubated overnight. The cells were treated with vehicle, vascular endothelial growth factor (VEGF, R & D Systems, Minneapolis, Minn.) at 25 ng/ml, serum, compounds, or combinations thereof. The medium is changed during the incubation period, with fresh medium and fresh test compound added every 2 days. After incubation for indicated time period at 37° C., the cells were lysed in 0.1% SDS and DNA content was measured by means of Hoechst-33258 dye and a fluorometer (model TKO-100, Hoefer Scientific Instruments, San Francisco, Calif.). It has been shown that total cellular DNA content measured in this manner correlates closely with actual cell number as determined by hemocytometer counting of trypsinized cells.
(§2) Determinations were performed in triplicate and all experiments were repeated at least three times. Results are expressed as the mean ±standard deviation, unless otherwise indicated. Statistical analysis employed Student's t-test or analysis of variance to compare quantitative data populations with normal distributions and equal variance. Data were analyzed using the Mann-Whitney rank sum test or the Kruskal-Wallis test for populations with non-normal distributions or unequal variance. A P-value of <0.05 was considered statistically significant.

[3] = test system: Bovine retinal pigment epithelial cells (RPEC); experiment: Cell growth assay in bovine retinal pigment epithelial cells; assay type: cell-based; details: 75 μg/ml
Method: as §1
Bovine retinal pigment epithelial cells (RPEC) were isolated by gentle scraping after removal of the neural retina and incubation with 0.2% collagenase as described in King et al., Diabetes, 1987, 36:1460-7. RPEC were cultured in DMEM with 5.5 mM glucose and 10% calf serum (CS, Gibco BRL, Grand Island, N.Y.). Cells were cultured in 5% CO2 at 37° C., and media were changed every other days. Cells were characterized for their homogeneity by immunoreactivity with anti-cytokeratin antibody for RPEC. […]

[4] = test system: bovine retinal pericytes (BRPC); experiment: Cell growth assay (DNA content, cell number) in bovine retinal pericytes; assay type: cell-based
Method: as §1, §2
Primary cultures of bovine retinal pericytes (BRPC) were isolated by homogenization and a series of filtration steps as described in King et al., J. Clin. Invest., 1985, 75:1028-36. BRPC were cultured in Dulbecco's modified Eagle's medium (DMEM, Gibco BRL, Grand Island, N.Y.) with 5.5 mM glucose and 20% fetal bovine serum (FBS, Gibco BRL, Grand Island, N.Y.). Cells were characterized for homogeneity by their immunoreactivity with monoclonal antibody 3G5 [Nayak et al., J. Exp. Med. 1988, 167:1003-15]. Cells remained morphologically unchanged under these conditions, as confirmed by light microscopy. Only cells from passages 2 through 7 were used for the experiments.
A cell growth assay was performed as described above in Example 1 and the medium was changed, with fresh medium and fresh test compound added every 2 or 3 days, preferably every 2 days. […] At 20% FBS a six to seven fold increase of total DNA was detected.

[5] = test system: MAP kinase phosphorylation; experiment: MAP kinase phosphorylation in BRPC; assay type: cell-based, bovine; details: 75 μg/ml
Method: Experiments were also performed in which the level of MAP kinase phosphorylation was determined in BRPC treated with 75 μg/ml rBPI21 or 5 μg/ml XMP.679. […] These observations indicate that exemplary BPI protein products rBPI21 and, to a lesser extent, XMP.679, enhance MAP kinase phosphorylation in BRPC.

XMP.676: BPI protein product, SEQ ID NO: 13 (KAVIQVVAKK; XMP.676; listed as Homo sapiens)
HRPC proliferation [1]: enhanced the proliferation of HRPC

XMP.627: BPI-derived peptide, SEQ ID NO: 4 (KLFRAQAKAKG; XMP.627; listed as Homo sapiens)
concentration of maximum HRPC proliferation ([1]; 5% FBS): approximately 5 μg/ml
effect on HRPC proliferation ([1]; 10% FBS): did increase HRPC proliferation
effect on HRPC growth ([1]; above 10 μg/ml, 5% FBS): slight growth inhibitory effect
effect on HRPC proliferation ([1]; approximately 0.5, 1, 5, 8 μg/ml, 5% FBS): increased HRPC proliferation in a dose responsive manner

XMP.861: BPI protein product, SEQ ID NO: 9 (KLFRA; XMP.861; listed as Homo sapiens)
HRPC proliferation [1]: little or no proliferation

XMP.852: BPI protein product, SEQ ID NO: 8 (KLFRAQ; XMP.852; listed as Homo sapiens)
HRPC proliferation [1]: little or no proliferation

XMP.711: BPI protein product, SEQ ID NO: 7 (KLARK; XMP.711; listed as Homo sapiens)
HRPC proliferation [1]: little or no proliferation

XMP.664: BPI-derived peptide, SEQ ID NO: 5 (KLFRAQAK; XMP.664; listed as Homo sapiens)
effect on HRPC growth ([1]; 10 μg/ml and higher, 5% FBS): slight growth inhibitory effect
effect on HRPC proliferation ([1]; 10 μg/ml, 10% FBS): increased HRPC proliferation
concentration of maximum HRPC proliferation ([1]; 5% FBS): approximately 5 μg/ml
effect on HRPC proliferation ([1]; above 10 μg/ml, 10% FBS): inhibited proliferation
effect on HRPC proliferation ([1]; approximately 0.5, 1, 5 μg/ml, 5% FBS): increased HRPC proliferation in a dose responsive manner

XMP.851: BPI protein product, SEQ ID NO: 15 (KLFRAQA; XMP.851; listed as Homo sapiens)
HRPC proliferation [1]: enhanced the proliferation of HRPC

XMP.365: BPI protein product, SEQ ID NO: 11 (KWLIQLFHKK; XMP.365; listed as Homo sapiens)
toxicity on HRPC [1]: some toxicities

VEGF [reference compound]
increase of DNA content ([2]; VEGF alone at 25 ng/ml): 3 to 5 fold and 3 to 4 fold

XMP.728: BPI-derived peptide, SEQ ID NO: 6 (KLFKAQAKAKG; XMP.728; listed as Homo sapiens)
effect on HRPC proliferation ([1]; 10% FBS): to lesser extent
effect on HRPC proliferation ([1]; only at approximately 5 μg/ml, 5% FBS): increased HRPC proliferation

XMP.629: BPI protein product, SEQ ID NO: 12 (KLFRAQAKA; XMP.629; listed as Homo sapiens)
HRPC proliferation [1]: enhanced the proliferation of HRPC

XMP.768: BPI protein product, SEQ ID NO: 14 (KLFRAQAK; XMP.768; listed as Homo sapiens)
HRPC proliferation [1]: enhanced the proliferation of HRPC

XMP.718: BPI protein product, SEQ ID NO: 10 (KLFRKA; XMP.718; listed as Homo sapiens)
toxicity on HRPC [1]: some toxicities

B1: rBPI21: recombinant N-terminal BPI analog, amino acids 1 to approximately 193 or 199, cysteine 132 substituted with alanine (protein, UniProt P17213 32-224, looked up, variant C132A)
chain: VNPGVVVRISQKGLDYASQQGTAALQKELKRIKIPDYSDSFKIKHLGKGHYSFYSMDIREFQLPSSQISMVPNVGLKFSISNANIKISGKWKAQKRFLKMSGNFDLSIEGMSISADLKLGSNPTSGKPTITASSCSSHINSVHVHISKSKVGWLIQLFHKKIESALRNKMNSQVCEKVTNSVSSELQPYFQTL
effect on RPEC growth [3]: had no effect
stimulation of proliferation ([4]; 75 μg/mL, 5, 10 or 15% FBS): 3 fold
increase of DNA above basal level ([4]; 75 μg/ml, 5% FBS): 5 fold
maximum growth compared with 20% FBS ([4]; 75 μg/ml, 5% FBS): almost equaled the growth effect of 20% FBS
growth compared with 20% FBS ([4]; 75 μg/ml, 15% FBS): increased the growth greater then 20% FBS
effect on DNA content ([4]; 5, 25, 75 μg/ml, 5% FBS): increased DNA content in a dose responsive manner
total number of cells per well ([4]; 5, 25, 75 μg/ml, 5% FBS): increased in a dose responsive manner
effect on growth ([4]; 5, 25 and 75 μg/ml, 10% FBS): induced the growth of pericyte
growth compared with 20% FBS ([4]; 25 and 75 μg/ml, 10% FBS): appeared to improve growth above that of 20% FBS
time of maximum MAP kinase phosphorylation after addition [5]: 15 min
effect on MAP kinase phosphorylation ([5]; 1 to 60 minutes): increased MAP kinase phosphorylation over time
maximum MAP kinase phosphorylation compared with 20% FBS ([5]; 15 minutes): nearly equaled the effect of 20% FBS
HRPC proliferation [1]: little or no proliferation
effect on DNA content ([2]; 5 μg/ml compound, with and without VEGF): did not have a significant effect
effect on DNA content (VEGF-dependent growth) ([2]; VEGF 25 ng/ml plus 25 μg/ml compound): did not have a significant effect
effect on DNA content (VEGF-dependent growth) ([2]; VEGF 25 ng/ml plus 75 μg/ml compound): decreased significantly the DNA content; also recorded: prevented VEGF-dependent growth
effect on total DNA content (growth) ([2]; compound alone without VEGF, 25 or 75 μg/ml): did not have a significant effect
